Experimental data taken from PubChem BioAssay AID1918957 (Molecular Pharmacology Branch, DTP, NCI, 2023).
“And” between values parts separate entries of the source, which are not always exact repeats. Identical values can stand only once.

Test system: NCI-H1876 complex spheroid viability
Test: Anticancer human tumor NCI-H1876 cell line growth inhibition [LSD1];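 note: spheroids exposed to compounds for one week before readout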;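 for viability, T/C: 100% = DMSO vehicle-treated spheroids so lower means fewer viable cells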
Details: for viability, T/C: stronger effect = lower value
How it was run: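 Drug combinations with the LSD1 inhibitor iadademstat tested on tumor cells co-cultured as spheroids with endothelial cells and mesenchymal stem cells. Concentrations descended in half-log increments from clinical Cmax or 10 microM.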

`CC(C)CC(NC(=O)CNC(=O)c1cc(Cl)ccc1Cl)B1OC(=O)CC(CC(=O)O)(C(=O)O)O1` (configuration not stated) was tested, and the viability, T/C (compound 0.000316 µM) was 102% and 97.5%, the viability, T/C (compound 0.001 µM) was 98.9% and 91.9% and the viability, T/C (compound 0.00316 µM) was 90.3% and 96%. For the same molecule, the viability, T/C (compound 0.01 µM) was 52.4% and 36.7%, the viability, T/C (compound 0.0316 µM) was 7.69% and 2.11% and the viability, T/C (compound 0.1 µM) was 15.7% and 0.34%. For the same molecule, the IC50 (curve of compound) was 10.3 nM and 7.69 nM.
